Tests used:
ClbP [1] = target: T1, ClbP (Escherichia coli, UniProt Q0P7K6); assay: ClbP cell lysate activity (inhibition) assay, fluorogenic substrate; format: biochemical; conditions: ClbP Lysate Inhibition Assay: IC50, E. coli ClbP+ lysozyme-EDTA lysates, 5 μM fluorogenic substrate, inhibitor 0-300 μM, 37° C., singlicate
Experimental: Cell Lysate Activity Assay
(§1) 1) E. coli ClbP+ were taken from a frozen stock and streaked onto BHI plates. They were grown aerobically at 37° C. overnight in the incubator.
(§2) 1) A single colony was selected from the plate and inoculated into 30 mL LB in a 50 mL conical vial eight times (240 mL total). The bacteria were grown aerobically overnight (16-20 h) at 37° C. on a nutator with rocking.
1) The saturated overnight culture was centrifuged to create a firm pellet (3,200 g, 10 min, 4° C.). The supernatant was removed and then the pellet was resuspended in 30 mL sterile PBS.
2) The bacteria were centrifuged again (3,200 g, 10 min, 4° C.). The supernatant was removed, and the pellet was resuspended in sterile PBS buffer (3 mL) in each 8 tubes to make a tenfold concentrated bacterial solution.
3) A lysozyme-EDTA (LE) solution was made in ddH2O (0.05 mg/mL lysozyme, 0.25 M EDTA).
4) For each of the eight tubes, LE solution (3 mL) was mixed with concentrated bacterial solution (3 mL). This mixture was incubated at 37° C. for 30 min to generate the lysates.
5) The lysates (192 μL) were mixed with inhibitor (6 μL, final concentration was 300, 100, 33.3, 11.1, 3.7, 1.2, 0.4, or 0 μM). Fluorogenic substrate (2 μL, final concentration 5 μM) was immediately added across the plate to initiate the reaction. As a control, each plate contained Compound No. III in this dose response curve. The final concentration of bacterial lysates was fivefold concentrated compared to the original saturated overnight culture. Carryover from DMSO was 4% (v/v). All compounds were tested in singlicate.
(§3) 6) The plate was loaded into a spectrophotometer preheated to 37° C. The fluorescence was recorded every 2 min for 46 min. The excitation wavelength was 360 nm (20 nm bandwidth), the emission wavelength was 460 nm (20 nm bandwidth), the optics position was bottom, the gain was 65, the light source was a tungsten bulb, and the read speed was normal.
(§4) 7) The linear portion of the fluorescence increase was 0-20 min. The rate of fluorescence increase (A.U./min) for each well in an inhibitor series was normalized to the 0 μM inhibitor condition. The normalized activity as a function of inhibitor concentration was then fit to a three parameter IC50 curve in Graphpad Prism.
(§5) “A” indicates an IC50 value less than 100 μM, “B” indicates an IC50 between 100 and 300 μM, “C” indicates an IC50 above 300 μM.

Full-length WT ClbP = Full-length WT ClbP (Escherichia coli, UniProt Q0P7K6); assay: ClbP molecular (purified protein) enzymatic inhibition assay, fluorogenic substrate; format: biochemical, E. coli
Experimental: ClbP Molecular (Purified Protein) Assay
1) Full-length WT ClbP was thawed on ice. A diluted enzyme solution (2 nM) was made by mixing 3.57 μL of enzyme with 20 mL of reaction buffer (50 mM Tris pH 8.0, 200 mM NaCl, 0.02% (w/v) n-dodecyl-b-D-maltoside (DDM)).
2) In a 96 well plate, the diluted protein solution (73.5 μL) was mixed with inhibitor (1.5 μL, of varying concentrations, see below) and preincubated for 15 min at room temperature. Then, reaction buffer (75 μL) containing 10 μM fluorogenic substrate was added to initiate the reaction. After addition of substrate, the final concentrations were 1 nM full-length WT ClbP, 5 μM fluorogenic substrate in 50 mM Tris pH 8.0, 200 mM NaCl, 0.02% (w/v) DDM, with either 0, 0.14, 0.41, 1.2, 3.7, 11, 33, or 100 μM inhibitor. For all conditions, the DMSO carryover was 2% (v/v) at the preincubation stage and 1% in the reaction stage. Compound No. III was always present as a control in each plate, and all compounds were tested in singlicate. In previous assays, the Km of the fluorogenic substrate was determined to be approximately 5 μM.
3) Immediately after addition of substrate to enzyme, the plate was transferred into a spectrophotometer held at room temperature. The fluorescence was recorded every 1.5 min for 15 min. The excitation wavelength was 360 nm (20 nm bandwidth), the emission wavelength was 440 nm (20 nm bandwidth), the optics position was bottom, the gain was extended, the light source was a xenon flash lamp, and the read speed was normal.
as §4, with “4)” for “7)”, “is at least from 0-6 min, so this time regime is used.” for “was 0-20 min.”
as §5

ClbP [2] = target: T1, ClbP; assay: ClbP whole cell activity (inhibition) assay, fluorogenic substrate; format: cell-based, E. coli
Experimental: Whole Cell Activity Assay
as §1, §2
1) The saturated overnight culture was centrifuged to create a firm pellet (3,200 g, 10 min, 4° C.). In a biosafety cabinet, the supernatant was removed and then the pellet was resuspended in 30 mL sterile PBS.
2) The bacteria were centrifuged again (3,200 g, 10 min, 4° C.). The supernatant was removed, and the pellet was resuspended in sterile PBS buffer (6 mL) in each of the 8 tubes. This fivefold concentrated bacterial solution was the working solution.
3) The bacterial working solution (192 μL) was mixed with inhibitor (6 μL, final concentration was 300, 100, 33.3, 11.1, 3.7, 1.2, 0.4, or 0 μM). Fluorogenic substrate (2 μL, final concentration 5 μM) was immediately added across the plate to initiate the reaction. As a control, each plate contained Compound No. III in this dose response curve. The bacterial concentration was fivefold concentrated compared to the original saturated overnight culture. Carryover from DMSO was 4% (v/v). All compounds were tested in singlicate.
as §3, with “4)” for “6)”
as §4, with “5)” for “7)”, “10-30” for “0-20”
as §5

SMILES | IC50 (ClbP [1]) [µM] | IC50 (Full-length WT ClbP) [µM] | IC50 (ClbP [2]) [µM]
CCCCCCCCCC(=O)N[C@H](CC(N)=O)C(=O)NCCc1ccccc1 [Compound CCLXVI] | < 100 | < 100 | < 100
CC(=O)N[C@H](CC(N)=O)C(=O)NCCc1ccccc1 [Compound CCLXV] | > 300 | 100 to 300 | > 300
CCCCCCCC(=O)N[C@@H](/C=C/C(=O)OCC)CC(N)=O [Compound CCLXXIII] | > 300 | 100 to 300 | > 300
CCCCCCCC(=O)N[C@H](CC(N)=O)C(=O)NCCc1ccc(F)cc1 [Compound CCLXXIV] | < 100 | < 100 | < 100
NC(=O)C[C@@H](NC(=O)CC1CCCCC1)C(=O)NCCc1ccccc1 [Compound CCLXXI] | > 300 | < 100 | 100 to 300
CCCCCCCC(=O)N[C@H](CC(N)=O)C(=O)N(C)CCc1ccc(O)cc1 [Compound CCLXXVII] | < 100 | < 100 | < 100
CCCCCCCC(=O)N[C@H](CC(N)=O)C(=O)N(CCc1ccc(O)cc1)C(C)C [Compound CCLXXVI] | < 100 | < 100 | > 300
CCCCCC(=O)N[C@H](CC(N)=O)C(=O)NCCc1ccc(C(F)(F)F)cc1 [Compound CCLXXV] | > 300 | < 100 | > 300
CCCCCCCC(=O)N[C@H](CC(N)=O)C(=O)C(=O)NCc1ccccc1 [Compound CCLXXXIII] | < 100 | < 100 | < 100
O=C(C[C@@H](NC(=O)CCC1CCCCC1)C(=O)NCCc1ccc(O)c(O)c1)NO [Compound CCLXXXIV] | 100 to 300 | < 100 | 100 to 300
CCCCCCCC(=O)N[C@H]1CC(=O)NC1(O)C(=O)NCc1ccccc1 (stereo partly drawn) [Compound CCLXXXIX] | 100 to 300 | < 100 | 100 to 300
CCCCCCCC(=O)N[C@H](CN[C@@H](C)C(=O)OC)CC(N)=O [Compound CCLXXXI] | > 300 | 100 to 300 | > 300
CCCCCCCC(=O)N[C@H](CC(=O)NOC)C(=O)NCCc1ccc(O)cc1 [Compound CCLXXXV] | 100 to 300 | < 100 | 100 to 300
CCCCCCCC(=O)N[C@@H](CN[C@@H](C)C(=O)OC)CC(N)=O [Compound CCLXXX] | > 300 | 100 to 300 | > 300
NC(=O)C[C@@H](NC(=O)CCCC1CCCCC1)C(=O)NCCc1ccccc1 [Compound CCLXX] | < 100 | < 100 | < 100
NC(=O)C[C@@H](NC(=O)/C=C/CC1CCCC1)C(=O)NCCc1ccc(O)cc1 [Compound CCLX] | < 100 | < 100 | < 100
NC(=O)C[C@@H](NC(=O)CCC1CCCC1)C(=O)NCCc1ccccc1 [Compound CCL] | < 100 | < 100 | < 100
CCCCCCCC(=O)N[C@H](CC(N)=O)C(=O)NCCc1ccncc1 [Compound CCVIII] | < 100 | < 100 | < 100
CCCCCCCC(=O)N[C@H](CC(N)=O)c1nc2ccccc2[nH]1 [Compound CCVII] | > 300 | < 100 | > 300
CCCCCCCC(=O)N[C@H](CC(N)=O)C(=O)NCCc1ccsc1 [Compound CCVI] | < 100 | < 100 | < 100
CCCCCCCC(=O)N[C@H](CC(N)=O)C(=O)NCCc1ccccn1 [Compound CCV] | < 100 | < 100 | < 100
CCCCCCCC(=O)N[C@H](CC(=O)NO)C(=O)NCCc1ccc(O)c(O)c1 [Compound CCXCIII] | < 100 | < 100 | < 100
NC(=O)C[C@@H](NC(=O)CCCCC(F)(F)F)C(=O)NCCc1ccc(O)cc1 [Compound CCXCII] | < 100 | < 100 | < 100
